In publication PMC2717426, “The effect of exogenous glucagon-like peptide-1 on the glycaemic response to small intestinal nutrient in the critically ill: a randomised double-blind placebo-controlled cross over study” (Critical Care, 2009):

Legend:
[1] = Blood glucose response to small intestinal nutrient infusion during intravenous GLP-1 infusion (bedside glucometer); format: in vivo, critically ill patients
Procedure: Seven critically ill adult patients (four males, three females, age range 28 to 76 years), predicted to remain mechanically ventilated for more than 48 hours, were studied. Exclusion criteria included pregnancy, pre-existing diabetes, contraindication to enteral feeding or post-pyloric catheter insertion, and previous surgery on the oesophagus, stomach or duodenum.
(§1) Patients were studied on two consecutive days, in which they received intravenous GLP-1 or placebo in a randomised, double-blind fashion. Twelve hours prior to the study, a naso-duodenal feeding catheter was inserted and confirmed via abdominal x-ray. On each study day enteral feeding was ceased at least four hours prior to the commencement of the study. Exogenous insulin (Actrapid, Novo-Nordisk, Copenhagen, Denmark) infusion was ceased at least two hours before the commencement of the study drug. Patient weight was provided by a relative and/or estimated by a dietician. […] The study investigators were blinded to each infusion, which were concealed in a glass bottle covered by black plastic. […] At t = 30 minute Ensure® (Abbott, Melbourne, Australia), a mixed nutrient liquid (64% carbohydrate, 1 kcal/ml), was delivered continuously into the small intestine at a rate of 1.5 ml/min for four hours (i.e. t = 30 to 270 min).
(§2) Blood glucose was measured at the bedside using a portable glucometer (Medisense Optimum, Abbott, Melbourne, Australia). Blood was collected, separated by centrifugation and the resulting plasma was stored at -70° until assayed for hormone concentrations. Plasma insulin was measured by ELISA (Diagnostics Systems Laboratories, Webster, Texas, USA) with an inter-assay coefficient of variation (CV) of 6.2%.
(§3) Data are presented as mean ± standard error of the mean. Area under the curve (AUC) was calculated using the trapezoidal rule. […] The ratios of insulin/glucose were calculated, as described previously. Statistical analyses were performed using SPSS (Version 15.0, Chicago, Illinois, USA). Distribution and sensitivity analysis, using nonparametric analyses, allowed parametric testing of data. The difference between intervention and placebo was assessed using paired samples; Student's paired t-test and repeated measures analysis of variance. Data were evaluated for potential carry over effect. The null hypothesis was rejected at the 0.05 significance.

[2] = Plasma insulin (ELISA) and insulin/glucose ratio during GLP-1 infusion; format: in vivo, critically ill patients; settings: GLP-1 1.2 pmol/kg/min i.v., mean ± SEM, n = 7
Text: Patients were studied on two consecutive days, in which they received intravenous GLP-1 or placebo in a randomised, double-blind fashion. Twelve hours prior to the study, a naso-duodenal feeding catheter was inserted and confirmed via abdominal x-ray. On each study day enteral feeding was ceased at least four hours prior to the commencement of the study. Exogenous insulin (Actrapid, Novo-Nordisk, Copenhagen, Denmark) infusion was ceased at least two hours before the commencement of the study drug. Patient weight was provided by a relative and/or estimated by a dietician. […] The study investigators were blinded to each infusion, which were concealed in a glass bottle covered by black plastic. […]
Blood glucose was measured at the bedside using a portable glucometer (Medisense Optimum, Abbott, Melbourne, Australia). […] Plasma insulin was measured by ELISA (Diagnostics Systems Laboratories, Webster, Texas, USA) with an inter-assay coefficient of variation (CV) of 6.2%.
Data are presented as mean ± standard error of the mean. Area under the curve (AUC) was calculated using the trapezoidal rule. […] The ratios of insulin/glucose were calculated, as described previously. […] The difference between intervention and placebo was assessed using paired samples; Student's paired t-test and repeated measures analysis of variance. Data were evaluated for potential carry over effect. […]

[3] = Total plasma GLP-1 concentration (radioimmunoassay) during GLP-1 infusion; format: in vivo, critically ill patients
Text: as §1, §2, §3

[4] = Plasma glucagon concentration (radioimmunoassay) during GLP-1 infusion; format: in vivo, critically ill patients; settings: GLP-1 1.2 pmol/kg/min i.v.; trapezoidal rule; mean ± SEM, n = 7
[5] = Tolerability of the study infusion; format: in vivo, critically ill patients; settings: GLP-1 1.2 pmol/kg/min i.v. over 270 minutes; all 7 patients
Text: as §1

[6] = GLP-1 infusion at 1.2 pmol/kg/min; postoperative patients with type 2 diabetes; cited from earlier work
Text: Hyperglycaemia in critically ill patients, not previously known to have diabetes, is associated with poorer outcomes than in patients with pre-existing diabetes. […] Insulin infusions were ceased two hours before the commencement of the study to ensure clearance of exogenous insulin. Given t ...

[7] = GLP-1 1.2 pmol/kg/min i.v. t = 0-270 min, intra-duodenal Ensure 1.5 kcal/min t = 30-270 min, mean ± SEM, n = 7
[8] = GLP-1 1.2 pmol/kg/min i.v., total GLP-1, radioimmunoassay, mean ± SEM, n = 7

## GLP-1-(7–36) amide
[1]; GLP-1 1.2 pmol/kg/min i.v. from t = 0, before start of small intestinal nutrient, vs placebo
  Effect on blood glucose prior to nutrient infusion, t = 30 min: no effect
[1]; [7]
  Blood glucose concentration, t = 180 min: 9.3 ± 0.6 mmol/L
  Peak blood glucose: 10.1 ± 0.7 mmol/L
[1]; GLP-1 1.2 pmol/kg/min i.v., intra-duodenal Ensure 1.5 kcal/min t = 30-270 min, trapezoidal rule, mean ± SEM, n = 7
  Overall glycaemic response, blood glucose AUC30–270 min: 2077 ± 144 mmol·min/L
[1]; GLP-1 study day, prior to infusion, arterial blood, glucometer, mean ± SEM, n = 7
  Baseline blood glucose concentration, t = 0 min: 7.5 ± 0.4 mmol/L
[2]; entire study period, trapezoidal rule
  Plasma insulin AUC0–270 min: 16,203 ± 5193 mU/l min
[2]; intra-duodenal nutrient, ELISA
  Plasma insulin, t = 270 min: 79 ± 21 mU/l
[3]; GLP-1 1.2 pmol/kg/min i.v. for 270 min, trapezoidal rule, mean ± SEM, n = 7
  Plasma GLP-1 AUC0–270 min: 31,659 ± 4203 pmol/l min
[3]; GLP-1 1.2 pmol/kg/min i.v. infusion
  Time after which steady state plasma GLP-1 concentrations were achieved: 30 min
[3]; [8]
  Plasma GLP-1 concentration, t = 30 min: 124 ± 15 pmol/L
  Plasma GLP-1 concentration, t = 90 min: 131 ± 13 pmol/L
[4]
  Plasma glucagon AUC0–270 minutes: 22,786 ± 6040 pmol/l min
[5]
  Tolerability of the study: well tolerated
[6]
  Effect on fasting glycaemia: achieved fasting normoglycaemia
  Tolerability: well tolerated
